In patent US9233185B2, “Absorbent article” (UNICHARM CORPORATION, priority 2012, dated 2016):
Values belong to the compound of their own block, whether it stands above or below them.

What was measured:
[1] = Rewetting rate of sanitary napkin with top sheet coated with blood modifying agent; conditions: horse EDTA blood 3.0 g twice at 37±1° C.; agent coated on top sheet at about 5 g/m^2
Protocol: A commercially available sanitary napkin was prepared. The sanitary napkin was formed from a top sheet, formed of a hydrophilic agent-treated air-through nonwoven fabric (composite fiber composed of polyester and polyethylene terephthalate, basis weight: 35 g/m^2), a second sheet, formed of an air-through nonwoven fabric (composite fiber composed of polyester and polyethylene terephthalate, basis weight: 30 g/m^2), an absorbent body comprising pulp (basis weight: 150-450 g/m^2, increased at the center section), an acrylic super-absorbent polymer (basis weight: 15 g/m^2) and tissue as a core wrap, a water-repellent agent-treated side sheet, and a back sheet composed of a polyethylene film.
(§1) The skin contact surface of the top sheet of the sanitary napkin was coated with the aforementioned blood modifying agent. Each blood modifying agent was used directly, when the blood modifying agent was liquid at room temperature, or when the blood modifying agent was solid at room temperature it was heated to its melting point +20° C., and a control seam HMA gun was used for atomization of the blood modifying agent and coating onto the entire skin contact surface of the top sheet to a basis weight of about 5 g/m^2.
(§2) An acrylic board with an opened hole (200 mm×100 mm, 125 g, with a 40 mm×10 mm hole opened at the center) was placed on a top sheet comprising each blood modifying agent, and 3.0 g of horse EDTA blood at 37±1° C. (obtained by adding ethylenediaminetetraacetic acid (hereunder, “EDTA”) to horse blood to prevent coagulation) was dropped through the hole using a pipette (once), and after 1 minute, 3.0 g of horse EDTA blood at 37±1° C. was again added dropwise through the acrylic board hole with a pipette (twice).
After the second dropping of blood, the acrylic board was immediately removed and 10 sheets of filter paper (Advantec Toyo Kaisha, Ltd, Qualitative Filter Paper No. 2, 50 mm×35 mm) were placed on the location where the blood had been dropped, and then a weight was placed thereover to a pressure of 30 g/cm^2. After 1 minute, the filter paper was removed, and the “rewetting rate” was calculated by the following formula. Rewetting rate(%)=100×(filter paper mass after test−initial filter paper mass)/6

[2] = Visual evaluation of whiteness of skin contact surface of top sheet; design: species or system horse; key: VG (Very Good): Virtually no redness of blood remaining, and no clear delineation between areas with and without blood.; G (Good): Slight redness of blood remaining, but difficult to delineate between areas with and without blood.; F (Fair): Slight redness of blood remaining, areas with blood discernible.; P (Poor): Redness of blood completely remaining; conditions: after absorbent body migration rate test
Source text: The whiteness of the skin contact surface of the top sheet after the absorbent body migration rate test was visually evaluated on the following scale.
VG (Very Good): Virtually no redness of blood remaining, and no clear delineation between areas with and without blood.
G (Good): Slight redness of blood remaining, but difficult to delineate between areas with and without blood.
F (Fair): Slight redness of blood remaining, areas with blood discernible.
P (Poor): Redness of blood completely remaining.

[3] = Source text: The term “solubility” used herein in regard to water solubility includes cases where the sample completely dissolves in deionized water to form a homogeneous mixture, and cases where the sample is completely emulsified. Here, “completely” means that no mass of the sample remains in the deionized water.
[4] = Absorbent body migration rate after second dropping of blood; conditions: time after second dropping of horse EDTA blood; agent about 5 g/m^2
Protocol: as §1, §2
In addition to the rewetting rate evaluation, the “absorbent body migration rate” was also measured as the time until migration of blood from the top sheet to the absorbent body after the second dropping of blood. The absorbent body migration rate is the time from introducing the blood onto the top sheet, until the redness of the blood […] on the surface and in the interior of the top sheet.

[5] = Surface tension of blood containing blood modifying agent, pendant drop method; conditions: sheep defibrinated blood; amount 0.10 mass %; 35 ° C.
Protocol: The surface tension of blood containing a blood modifying agent was measured by the pendant drop method, using a Drop Master500 contact angle meter by Kyowa Interface Science Co., Ltd. The surface tension was measured after adding a prescribed amount of blood modifying agent to sheep defibrinated blood, and thoroughly shaking. The measurement was accomplished automatically with a device, and the surface tension γ was determined by the following formula (see FIG. 10). γ=g×ρ×(de)^2×1/H The density ρ was measured at the temperatures listed in Table 7, according to JIS K 2249-1995, “Density test methods and density/mass/volume conversion tables”, “5. Vibrating density test method”. The measurement was accomplished using a DA-505 by Kyoto Electronics Co., Ltd.

Compound: CCCCCCCCCCCC(=O)OCC(O)CO (centres unmarked) [90-L2 Lauric acid monoglyceride, lauric acid monoglyceride]
Rewetting rate [1]: 6.2% | Top sheet whiteness [2]: P

Water solubility [3]: 20< g
Compound: CC(C)CCCCCCCCCCCCCCCOC(=O)CC(O)C(=O)OCCCCCCCCCCCCCCCC(C)C (centres unmarked) [Diisostearyl malate]
Rewetting rate [1]: 5.5% | Absorbent body migration rate [4]: 8 s | Top sheet whiteness [2]: F

Compound: CCCCCCCCOC(=O)CCCCC(=O)OCCCCCCCC [Dioctyl adipate]
Rewetting rate [1]: 1.7% | Absorbent body migration rate [4]: 6 s | Top sheet whiteness [2]: VG

Compound: CCCCCCCCCCCCOC(=O)CCCCCCCCCCC [ELECTOL WE20, Ester of dodecanoic acid (C12) and dodecyl alcohol (C12)]
Rewetting rate [1]: 1.8% | Top sheet whiteness [2]: VG | Surface tension [5]: 58.8 mN/m

Compound: CCCCCCCCCCCCCC(=O)OCCCCCCCCCCCC [ELECTOL WE40, Ester of tetradecanoic acid (C14) and dodecyl alcohol (C12)]
Rewetting rate [1]: 1.8% | Absorbent body migration rate [4]: 4 s | Top sheet whiteness [2]: VG

Water solubility [3]: <0.05 g
Compound: CCCCC(CC)C(=O)OCC(C)(C)COC(=O)C(CC)CCCC (centres unmarked) [H-208BRS, Neopentyl glycol di(2-ethylhexanoate)]
Rewetting rate [1]: 2.0% | Absorbent body migration rate [4]: 5 s | Top sheet whiteness [2]: VG

Compound: CCCCC(CC)C(=O)OCC(COC(=O)C(CC)CCCC)(COC(=O)C(CC)CCCC)COC(=O)C(CC)CCCC (centres unmarked) [H-408BRS, Pentaerythritol tetra(2-ethylhexanoate)]
Top sheet whiteness [2]: VG

Water solubility [3]: <0.05 g
Compound: CCCCC(CC)C(=O)OCC(COC(=O)C(CC)CCCC)OC(=O)C(CC)CCCC (centres unmarked) [PANACET 800B]
Rewetting rate [1]: 2.0% | Absorbent body migration rate [4]: 3 s | Top sheet whiteness [2]: VG

Water solubility [3]: <0.05 g
Compound: CCCCCCCC(=O)OCC(COC(=O)CCCCCCC)OC(=O)CCCCCCC [PANACET 800]
Rewetting rate [1]: 0.3% | Absorbent body migration rate [4]: 3 s | Top sheet whiteness [2]: VG

Water solubility [3]: <0.05 g
Compound: CCCCOC(=O)CC(CC(=O)OCCCC)(OC(C)=O)C(=O)OCCCC [Tributyl O-acetylcitrate]
Rewetting rate [1]: 6.2% | Absorbent body migration rate [4]: 8 s | Top sheet whiteness [2]: VG

Compound: Caprylic acid diglyceride [Caprylic diglyceride]
Rewetting rate [1]: 4.2% | Absorbent body migration rate [4]: 9 s | Top sheet whiteness [2]: G

Compound: Isopropyl citrate
Rewetting rate [1]: 12.2% | Absorbent body migration rate [4]: 5 s | Top sheet whiteness [2]: G
